Patent US10597388B2, “Pyridazinone herbicides” (FMC CORPORATION, priority 2014, dated 2020)

Legend:
Assay in all cases: Test D controlled growth environment herbicide test, pre- and postemergence
Format in all cases: in vivo
[1] = test system: barley, winter (winter barley, Hordeum vulgare)
Outline: (§1)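 Rating is visual, 0–100 scale (100 = complete control), made against untreated plants 14–21 d after treatment in controlled growth conditions. Postemergence sprays went onto 1- to 4-leaf plants in peat medium; preemergence sprays onto silt loam after sowing; formulation included a surfactant.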

[2] = test system: blackgrass (Alopecurus myosuroides)
Outline: as §1

[3] = test system: bromegrass, downy (downy bromegrass, Bromus tectorum)
Outline: as §1

[4] = test system: chamomile (scentless chamomile, Matricaria inodora)
Outline: as §1

[5] = test system: chickweed (common chickweed, Stellaria media)
Outline: as §1

[6] = test system: field poppy (Papaver rhoeas)
Outline: as §1

[7] = test system: foxtail, green (green foxtail, Setaria viridis)
Outline: as §1

[8] = test system: lambsquarters (Chenopodium album)
Outline: as §1

[9] = test system: mustard, wild (wild mustard, Sinapis arvensis)
Outline: as §1

[10] = test system: oat, wild (wild oat, Avena fatua)
Outline: as §1

[11] = test system: pigweed (Amaranthus retroflexus)
Outline: as §1

[12] = test system: wheat, spring (spring wheat, Triticum aestivum)
Outline: as §1

[13] = test system: wheat, winter (winter wheat, Triticum aestivum)
Outline: as §1

[14] = test system: windgrass (Apera spica-venti)
Outline: as §1

[15] = Postemergence, 31 g ai/ha, scale 0 to 100 (0 no effect, 100 complete control)
[16] = Postemergence, 125 g ai/ha, visual rating on scale 0 (no effect) to 100 (complete control), 14 to 21 d
[17] = Postemergence, 250 g ai/ha, scale 0 to 100 (0 no effect, 100 complete control)
[18] = Preemergence, 62 g ai/ha, scale 0 to 100 (0 no effect, 100 complete control)
[19] = Preemergence, 125 g ai/ha, scale 0 to 100 (0 no effect, 100 complete control)
[20] = Preemergence, 250 g ai/ha, scale 0 to 100, 0 no effect, 100 complete control
[21] = postemergence, 62 g ai/ha, scale 0 to 100, 0 no effect, 100 complete control

Cc1ccc2ccccc2c1-c1c(OC(=O)OC(C)C)c(C)nn(C)c1=O [Compound 72]
Barley, Winter plant response rating [1, 15]: 10
Plant response rating, Barley, Winter [1, 16]: 30
Plant response rating, Barley, Winter [1, 17]: 35
Plant response rating (scale of 0 to 100), Barley, Winter ([1]; Preemergence, 31 g ai/ha): 5
Plant response rating, Barley, Winter [1, 18]: 25
Plant response rating, Barley, Winter [1, 19]: 50
Plant response rating, Barley, Winter [1, 20]: 75
Plant response rating, Barley, Winter [1, 21]: 20
Blackgrass plant response rating [2, 15]: 40
Plant response rating, Blackgrass [2, 16]: 75
Plant response rating, Blackgrass [2, 17]: 80
Plant response rating (scale of 0 to 100), Blackgrass ([2]; Preemergence, 31 g ai/ha): 15
Plant response rating, Blackgrass [2, 18]: 30
Plant response rating, Blackgrass [2, 19]: 55
Plant response rating, Blackgrass [2, 20]: 75
Plant response rating, Blackgrass [2, 21]: 70
Bromegrass, Downy plant response rating [3, 15]: 45
Plant response rating, Bromegrass, Downy [3, 16]: 65
Plant response rating, Bromegrass, Downy [3, 17]: 75
Plant response rating (scale of 0 to 100), Bromegrass, Downy ([3]; Preemergence, 31 g ai/ha): 0
Plant response rating, Bromegrass, Downy [3, 18]: 0
Plant response rating, Bromegrass, Downy [3, 19]: 35
Plant response rating, Bromegrass, Downy [3, 20]: 60
Plant response rating, Bromegrass, Downy [3, 21]: 55
Chamomile plant response rating [4, 15]: 75
Plant response rating, Chamomile [4, 16]: 85
Plant response rating, Chamomile [4, 17]: 100
Plant response rating, Chamomile [4, 21]: 80
Chickweed plant response rating [5, 15]: 98
Plant response rating, Chickweed [5, 16]: 100
Plant response rating, Chickweed [5, 17]: 100
Plant response rating (scale of 0 to 100), Chickweed ([5]; Preemergence, 31 g ai/ha): 70
Plant response rating, Chickweed [5, 18]: 100
Plant response rating, Chickweed [5, 19]: 100
Plant response rating, Chickweed [5, 20]: 100
Plant response rating, Chickweed [5, 21]: 100
Field Poppy plant response rating [6, 15]: 80
Plant response rating, Field Poppy [6, 16]: 100
Plant response rating, Field Poppy [6, 17]: 100
Plant response rating (scale of 0 to 100), Field Poppy ([6]; Preemergence, 31 g ai/ha): 100
Plant response rating, Field Poppy [6, 18]: 100
Plant response rating, Field Poppy [6, 19]: 100
Plant response rating, Field Poppy [6, 20]: 100
Plant response rating, Field Poppy [6, 21]: 90
Foxtail, Green plant response rating [7, 15]: 60
Plant response rating, Foxtail, Green [7, 16]: 70
Plant response rating, Foxtail, Green [7, 17]: 75
Plant response rating (scale of 0 to 100), Foxtail, Green ([7]; Preemergence, 31 g ai/ha): 20
Plant response rating, Foxtail, Green [7, 18]: 30
Plant response rating, Foxtail, Green [7, 19]: 60
Plant response rating, Foxtail, Green [7, 20]: 85
Plant response rating, Foxtail, Green [7, 21]: 65
Lambsquarters plant response rating [8, 15]: 80
Plant response rating, Lambsquarters [8, 16]: 90
Plant response rating, Lambsquarters [8, 17]: 100
Plant response rating (scale of 0 to 100), Lambsquarters ([8]; Preemergence, 31 g ai/ha): 35
Plant response rating, Lambsquarters [8, 18]: 100
Plant response rating, Lambsquarters [8, 19]: 95
Plant response rating, Lambsquarters [8, 20]: 95
Plant response rating, Lambsquarters [8, 21]: 95
Mustard, Wild plant response rating [9, 15]: 85
Plant response rating, Mustard, Wild [9, 16]: 100
Plant response rating, Mustard, Wild [9, 17]: 100
Plant response rating (scale of 0 to 100), Mustard, Wild ([9]; Preemergence, 31 g ai/ha): 0
Plant response rating, Mustard, Wild [9, 18]: 25
Plant response rating, Mustard, Wild [9, 19]: 60
Plant response rating, Mustard, Wild [9, 20]: 80
Plant response rating, Mustard, Wild [9, 21]: 100
Oat, Wild plant response rating [10, 15]: 85
Plant response rating, Oat, Wild [10, 16]: 95
Plant response rating, Oat, Wild [10, 17]: 98
Plant response rating (scale of 0 to 100), Oat, Wild ([10]; Preemergence, 31 g ai/ha): 65
Plant response rating, Oat, Wild [10, 18]: 75
Plant response rating, Oat, Wild [10, 19]: 85
Plant response rating, Oat, Wild [10, 20]: 95
Plant response rating, Oat, Wild [10, 21]: 85
Pigweed plant response rating [11, 15]: 95
Plant response rating, Pigweed [11, 16]: 100
Plant response rating, Pigweed [11, 17]: 100
Plant response rating (scale of 0 to 100), Pigweed ([11]; Preemergence, 31 g ai/ha): 35
Plant response rating, Pigweed [11, 18]: 85
Plant response rating, Pigweed [11, 19]: 95
Plant response rating, Pigweed [11, 20]: 100
Plant response rating, Pigweed [11, 21]: 100
Wheat, Spring plant response rating [12, 15]: 40
Plant response rating, Wheat, Spring [12, 16]: 60
Plant response rating, Wheat, Spring [12, 17]: 70
Plant response rating (scale of 0 to 100), Wheat, Spring ([12]; Preemergence, 31 g ai/ha): 0
Plant response rating, Wheat, Spring [12, 18]: 35
Plant response rating, Wheat, Spring [12, 19]: 65
Plant response rating, Wheat, Spring [12, 20]: 80
Plant response rating, Wheat, Spring [12, 21]: 50
Wheat, Winter plant response rating [13, 15]: 25
Plant response rating, Wheat, Winter [13, 16]: 50
Plant response rating, Wheat, Winter [13, 17]: 60
Plant response rating (scale of 0 to 100), Wheat, Winter ([13]; Preemergence, 31 g ai/ha): 5
Plant response rating, Wheat, Winter [13, 18]: 10
Plant response rating, Wheat, Winter [13, 19]: 25
Plant response rating, Wheat, Winter [13, 20]: 45
Plant response rating, Wheat, Winter [13, 21]: 35
Windgrass plant response rating [14, 15]: 65
Plant response rating, Windgrass [14, 16]: 80
Plant response rating, Windgrass [14, 17]: 85
Plant response rating (scale of 0 to 100), Windgrass ([14]; Preemergence, 31 g ai/ha): 25
Plant response rating, Windgrass [14, 18]: 65
Plant response rating, Windgrass [14, 19]: 80
Plant response rating, Windgrass [14, 20]: 90
Plant response rating, Windgrass [14, 21]: 75
